3 compounds from USRE50050E1, “Pyrimidinedione compounds” (MyoKardia, Inc., priority 2013, dated 2024) can be followed below.

Where two headings read alike, the source gives them in different places. Bounds are passed on as bounds.

The subject of test [1] is cardiac contractility in rat. Put plainly: Acute pharmacodynamic effect in rat (echocardiographic fractional shortening). The format is in vivo. To be noted: male Sprague-Dawley rats, single dose 4 mg/kg by oral gavage, percent reduction of baseline. How it is done:
Representative compounds were tested for their ability to modulate cardiac contractility in rat as a measure of in vivo target engagement. Fractional shortening, a measure of contractility, was determined by noting the change in the diameter of the left ventricle at the end of systole/contraction (LVESd) relative to diastole/relaxation (LVEDd) and expressing this change as the ratio FS=(LVEDd−LVESd)/LVEDd. Fed male Sprague-Dawley rats were lightly anesthetized with isofluorane and baseline fractional shortening was measured in the parasternal position using transthoracic echocardiography (TTE). Following this measurement, animals were recovered and received a single dose of compound (4 mg/kg) by oral gavage. At three hours post-dose, second and third echocardiograms were collected under light anesthesia to determine drug effects on contractility. Effects are represented in Table 5 as a percent reduction of baseline fractional shortening.

In test [2] the test system is adult rat ventricular myocytes. Put plainly: Cardiomyocyte contractility assay (fractional shortening, IonOptix). The test is classed as cell-based. To be noted: Ventricular myocyte, 5 min, 5 minutes of compound. As to the method: Contractility of adult rat ventricular myocytes is determined by edge detection with an IonOptix contractility system. Aliquots of myocytes in Tyrode buffer (137 mM NaCl, 3.7 mM KCL, 0.5 mM MgCl2, 1.5 mM CaCl2, 4 mM HEPES, 11 mM glucose) are placed in a perfusion chamber (Series 20 RC-27NE; Warner Instruments), allowed to adhere to the coverslip, and then perfused with 37° C. Tyrode buffer. Myocytes are filed stimulated at 1 Hz and 10V. Only myocytes with clear striations, quiescent prior to pacing, with a cell length of 120-180 microns, a basal fractional shortening equal to 3-8% of the cell length, and a contraction velocity greater than 100 microns per second are used for contractility experiments. To determine the response to compounds, myocytes are first perfused for 60 seconds with Tyrodes buffer followed by 5 minutes of compound and a 140 second washout with Tyrodes buffer. Data is continuously recorded using IonOptix software. Contractility data is analyzed using Ionwizard software (IonOptix). For each cell, 10-20 contractility transients were averaged and compared under basal (no compound) and compound-treated conditions. Compound activity is measured by effects on fractional shortening (FS), where fractional shortening is the ratio of the peak length of the cell at contraction divided by the basal cell length normalized to 100% for an untreated cell.

The target of the next test is T1, bovine cardiac myosin (Bos taurus, UniProt Q9BE39).
T1 construct: The source of cardiac myosin was from bovine heart in the form of skinned myofibrils; from tissue; host or cells: bovine heart, skinned myofibrils
T1 sequence (Q9BE39 whole entry): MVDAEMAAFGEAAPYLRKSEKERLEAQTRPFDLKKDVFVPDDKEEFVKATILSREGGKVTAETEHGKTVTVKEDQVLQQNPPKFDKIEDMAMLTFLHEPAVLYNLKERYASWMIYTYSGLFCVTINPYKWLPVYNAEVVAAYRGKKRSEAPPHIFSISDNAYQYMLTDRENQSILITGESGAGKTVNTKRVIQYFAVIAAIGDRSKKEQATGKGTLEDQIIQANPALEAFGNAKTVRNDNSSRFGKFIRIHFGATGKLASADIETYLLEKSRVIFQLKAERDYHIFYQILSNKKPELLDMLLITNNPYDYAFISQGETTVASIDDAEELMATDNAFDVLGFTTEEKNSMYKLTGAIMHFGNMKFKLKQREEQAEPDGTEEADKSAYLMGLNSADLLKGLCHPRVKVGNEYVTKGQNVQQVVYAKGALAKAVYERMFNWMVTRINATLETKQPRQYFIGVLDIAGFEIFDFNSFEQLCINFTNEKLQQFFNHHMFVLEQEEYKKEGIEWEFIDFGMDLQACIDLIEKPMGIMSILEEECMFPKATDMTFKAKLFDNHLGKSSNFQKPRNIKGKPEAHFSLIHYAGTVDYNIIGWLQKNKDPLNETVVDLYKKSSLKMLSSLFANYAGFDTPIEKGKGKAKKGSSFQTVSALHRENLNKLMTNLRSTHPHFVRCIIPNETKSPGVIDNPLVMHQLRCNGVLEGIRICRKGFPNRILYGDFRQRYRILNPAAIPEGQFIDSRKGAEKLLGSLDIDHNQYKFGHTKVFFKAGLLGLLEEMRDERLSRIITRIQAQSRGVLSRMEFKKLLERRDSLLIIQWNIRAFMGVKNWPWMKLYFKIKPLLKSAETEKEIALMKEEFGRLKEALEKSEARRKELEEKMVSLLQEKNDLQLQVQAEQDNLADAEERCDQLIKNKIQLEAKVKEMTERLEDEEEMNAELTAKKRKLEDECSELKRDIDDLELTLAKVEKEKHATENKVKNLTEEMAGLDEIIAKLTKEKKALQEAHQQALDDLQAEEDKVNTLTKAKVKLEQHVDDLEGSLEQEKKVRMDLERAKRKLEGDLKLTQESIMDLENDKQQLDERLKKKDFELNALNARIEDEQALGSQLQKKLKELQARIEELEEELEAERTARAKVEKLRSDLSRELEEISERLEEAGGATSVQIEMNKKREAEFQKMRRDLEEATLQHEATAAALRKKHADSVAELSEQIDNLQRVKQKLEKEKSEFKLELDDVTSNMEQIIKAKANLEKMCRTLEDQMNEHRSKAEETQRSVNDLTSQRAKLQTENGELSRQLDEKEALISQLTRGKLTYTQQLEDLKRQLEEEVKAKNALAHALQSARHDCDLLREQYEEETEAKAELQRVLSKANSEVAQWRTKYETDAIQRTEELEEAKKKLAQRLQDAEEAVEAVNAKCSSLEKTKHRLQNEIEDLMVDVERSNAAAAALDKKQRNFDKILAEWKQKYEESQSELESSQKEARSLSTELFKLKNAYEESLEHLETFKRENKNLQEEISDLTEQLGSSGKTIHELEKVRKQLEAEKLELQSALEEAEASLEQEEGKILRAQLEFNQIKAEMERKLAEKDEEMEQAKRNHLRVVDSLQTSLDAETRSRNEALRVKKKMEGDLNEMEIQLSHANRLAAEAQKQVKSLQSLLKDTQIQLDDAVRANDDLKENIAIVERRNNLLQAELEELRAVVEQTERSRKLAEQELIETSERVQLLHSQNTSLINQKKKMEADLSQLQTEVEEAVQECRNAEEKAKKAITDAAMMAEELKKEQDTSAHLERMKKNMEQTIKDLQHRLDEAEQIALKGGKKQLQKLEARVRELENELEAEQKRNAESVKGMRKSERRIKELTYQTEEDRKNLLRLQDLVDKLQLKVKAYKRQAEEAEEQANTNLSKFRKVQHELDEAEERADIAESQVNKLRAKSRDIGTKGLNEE
T1 sequence (P85100 whole entry partner): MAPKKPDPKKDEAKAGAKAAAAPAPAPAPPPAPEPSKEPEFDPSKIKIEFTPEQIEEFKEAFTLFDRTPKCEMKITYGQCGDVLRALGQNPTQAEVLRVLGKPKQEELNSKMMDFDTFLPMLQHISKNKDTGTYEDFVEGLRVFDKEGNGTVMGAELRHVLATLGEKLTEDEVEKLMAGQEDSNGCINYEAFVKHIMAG
T1 sequence (Q3SZE5 whole entry partner): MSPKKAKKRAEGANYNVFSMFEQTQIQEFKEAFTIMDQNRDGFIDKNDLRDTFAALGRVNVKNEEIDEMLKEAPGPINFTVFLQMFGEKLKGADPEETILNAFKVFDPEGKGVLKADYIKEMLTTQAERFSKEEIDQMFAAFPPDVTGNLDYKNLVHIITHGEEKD
Kind of test: Myosin inhibition assay (PK/LDH-coupled ATPase, bovine cardiac myofibrils). The format is biochemical. To be noted: bovine cardiac myofibrils.

The mark [3] stands for this setting: calcium giving 75% activation (pCa75), read-out: Biochemical Activity (pCa75).

Method for bovine cardiac myosin: Small molecule agents were assessed for their ability to inhibit the enzymatic activity of bovine cardiac myosin using a biochemical assay that couples the release of ADP (adenosine diphosphate) from cardiac myosin to an enzymatic coupling system consisting of pyruvate kinase and lactate dehydrogenase (PK/LDH) and monitoring the absorbance decrease of NADH (at 340 nm) as a function of time. PK converts ADP to ATP (adenosine triphosphate) by converting PEP (phosphoenolpyruvate) to pyruvate. Pyruvate is then converted to lactate by LDH by converting NADH (nicotinamide adenine dinucleotide) to NAD (oxidized nicotinamide adenine dinucleotide). The source of cardiac myosin was from bovine heart in the form of skinned myofibrils. Prior to testing small molecule agents, the bovine myofibrils were assessed for their calcium responsiveness and the calcium concentration that achieves either a 50% (pCa50) or 75% (pCa75) activation of the myofibril system was chosen as the final condition for assessing the inhibitory activity of the small molecule agents. All enzymatic activity was measured in a buffered solution containing 12 mM PIPES (piperazine-N,N′-bis(2-ethanesulfonic acid), 2 mM magnesium chloride at pH 6.8 (PM 12 buffer). Final assay conditions were 1 mg/mL of bovine cardiac myofibrils, 0.4 mM PK/LDH, 50 uM ATP, 0.1 mg/mL BSA (bovine serum albumin), 10 ppm antifoam, 1 mM DTT, 0.5 mM NADH, 1.5 mM PEP at the desired free calcium concentration required to achieve either 50% or 75% activation of the myofibrils.
A dilution series of compound was created in DMSO such that the final desired concentration of compound would be achieved in a volume of 100 μL with a fixed DMSO concentration of 2% (v/v). Typically 2 μL of the dilution series were added to 96 well plate to achieve an 8 or 12 point dose response. Following the addition of 50 μL of a solution containing bovine cardiac myofibrils, PK/LDH and a solution of calcium (that achieved the desired activation), the enzymatic reaction was started with the addition of 50 μL of a solution containing ATP, PEP and NADH. The reaction progress was followed in a Molecular Devices M5e plate reader at ambient temperature using clear half area plates. The plate reader was configured to read absorbance at 340 nm in kinetics mode for 15 minutes. Data were recorded as the slope of the absorbance response to time. The slopes of the absorbance response as a function of time were normalized to slopes on the plate containing DMSO. This normalized rate was then plotted as a function of small molecule concentration and the data was fitted to a four-parameter fit using GraphPad Prism. The midpoint of this plot is the 1050 and is the concentration at which fifty percent of the total response is inhibited.

`CC(C)n1c(=O)cc(N[C@@H](C)c2ccccc2)[nH]c1=O` [Compound 1, (S)-3-Isopropyl-6-((1-phenylethyl)amino) pyrimidine-2,4(1H,3H)-dione]: the “% Reduction in Fractional Shortening 3 h post-dose” value in test [1] is recorded as “+++ (+++ presents a relative change in fractional shortening greater than 30%)”. Besides, the inhibition at 0.3 µM in test [2] (0.3 uM compound) is 33 to 66%. The compound also returned an inhibition at 1 µM in test [2] (1.0 uM compound) of over 66%.

In the case of `CCCn1c(=O)cc(N[C@@H](C)c2ccccc2)[nH]c1=O` [Compound 48, (S)-6-((1-phenylethyl)amino)-3-propylpyrimidine-2,4(1H,3H)-dione], the “% Reduction in Fractional Shortening 3 h post-dose” value in test [1] is given as “+++ (+++ presents a relative change in fractional shortening greater than 30%)”. Moreover, the IC50 at bovine cardiac myosin (calcium giving 50% activation (pCa50), read-out: Biochemical Activity (pCa50)) lay within 1 to 15 µM; at bovine cardiac myosin (setting [3]), 1 to 15 µM.

Take `CC(C)n1c(=O)cc(N[C@@H](C)c2ccccc2C(F)(F)F)[nH]c1=O` [Compound 70, (S)-3-isopropyl-6-((1-(2-(trifluoromethyl)phenyl)ethyl)amino) pyrimidine-2,4(1H,3H)-dione]: in test [1], the “% Reduction in Fractional Shortening 3 h post-dose” value was “++ (++ represents a relative change in fractional shortening between 15-30%)”. Further, the IC50 at bovine cardiac myosin (setting [3]) lay in the range of 1 to 15 µM.
